Key:
Set-up in all cases: species or system guinea pig
[1] = molecular target: T1, gpBLT1 His83Gly^2.67/Lys88Gly^3.21 (Cavia porcellus, UniProt H0VYV8, H83G/K88G/S309A); assay: competitive ligand binding
[2] = molecular target: T1, gpBLT1 His83Gly^2.67/Lys88Gly^3.21; assay: saturation binding of LTB4, membrane fraction
[3] = molecular target: purified gpBLT1 His83Gly^2.67/Lys88Gly^3.21 (Cavia porcellus, UniProt H0VYV8, H83G/K88G/S309A); assay: competitive ligand binding to purified receptor
[4] = molecular target: T2, original gpBLT1 dN15/Ser309Ala (Cavia porcellus, UniProt H0VYV8, S309A); assay: competitive ligand binding
[5] = molecular target: T2, original gpBLT1 dN15/Ser309Ala; assay: saturation binding of LTB4, membrane fraction

T1 sequence (H0VYV8 1-348 H83G/K88G/S309A): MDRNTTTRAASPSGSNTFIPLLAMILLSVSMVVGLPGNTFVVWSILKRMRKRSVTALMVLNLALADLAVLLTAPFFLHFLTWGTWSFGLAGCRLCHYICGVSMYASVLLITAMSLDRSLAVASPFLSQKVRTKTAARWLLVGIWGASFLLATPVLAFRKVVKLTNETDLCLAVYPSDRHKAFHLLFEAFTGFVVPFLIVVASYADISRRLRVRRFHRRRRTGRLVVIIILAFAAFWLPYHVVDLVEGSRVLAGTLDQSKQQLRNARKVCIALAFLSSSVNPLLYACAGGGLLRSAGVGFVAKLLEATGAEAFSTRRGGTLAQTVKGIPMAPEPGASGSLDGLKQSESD
T2 sequence (H0VYV8 16-348 S309A): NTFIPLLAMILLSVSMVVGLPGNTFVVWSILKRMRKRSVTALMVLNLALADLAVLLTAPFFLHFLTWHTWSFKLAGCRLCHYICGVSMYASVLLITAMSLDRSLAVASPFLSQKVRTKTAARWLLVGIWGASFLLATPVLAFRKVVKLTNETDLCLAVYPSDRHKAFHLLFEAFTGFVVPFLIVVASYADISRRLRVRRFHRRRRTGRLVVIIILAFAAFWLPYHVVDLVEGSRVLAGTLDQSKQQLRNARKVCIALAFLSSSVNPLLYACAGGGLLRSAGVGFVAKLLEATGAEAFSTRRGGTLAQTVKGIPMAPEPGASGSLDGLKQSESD
Chain of purified gpBLT1 His83Gly^2.67/Lys88Gly^3.21 (H0VYV8 1-348 H83G/K88G/S309A): as the sequence (H0VYV8 1-348 H83G/K88G/S309A) above

- Ki [1]: 12.9 nM
- Kd [2]: 8.2 nM
- IC50 [3]: 2.4 nM
- Ki [4]: 3.8 nM
- Kd [5]: 6.6 nM
SMILES: CCCCC/C=C\C[C@@H](O)/C=C/C=C/C=C\[C@@H](O)CCCC(=O)O [LTB4, leukotriene B4]
